Test results reported in patent EP0777471B1, “INHIBITION OF LEUKOTRIENE BIOSYNTHESIS WITH UREA DERIVATIVES” (MINNESOTA MINING AND MANUFACTURING COMPANY, priority 1994, dated 1996).
Several values for one entry are separate records, joined by “and”; a condition that tells them apart may be missing. Identical values can stand only once. Like-named read-outs stand apart in the source and are kept apart here.

How the values were obtained:
[1] = test system: production of Leukotriene B4; experiment: Rat ex vivo Leukotriene B4 inhibition (oral dosing, blood challenged with A23187); assay type: in vivo, Rats; details: two hours post dose
Procedure, shortened: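 Male CD rats (250 g, non-fasted) dosed orally with compound in PEG 400, 5 rats/group; blood drawn by cardiac puncture before and 2 h after dosing. Heparinized blood challenged with A23187 calcium ionophore, 30 min at 37°C; plasma LTB4 measured by radioimmunoassay. % inhibition = post-dose vs pre-dose LTB4 level.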

5-lipoxygenase = molecular target: T1, 5-lipoxygenase (Homo sapiens, UniProt P09917); experiment: 5-Lipoxygenase inhibition in human leukocytes (A23187-stimulated, LTC4 radioimmunoassay); assay type: cell-based
T1 construct: Whole human blood is collected by venipuncture into EDTA; endogenous in cells; host or cells: leukocytes isolated from whole human blood (dextran sedimentation, hypotonic lysis)
T1 sequence (P09917 1-674): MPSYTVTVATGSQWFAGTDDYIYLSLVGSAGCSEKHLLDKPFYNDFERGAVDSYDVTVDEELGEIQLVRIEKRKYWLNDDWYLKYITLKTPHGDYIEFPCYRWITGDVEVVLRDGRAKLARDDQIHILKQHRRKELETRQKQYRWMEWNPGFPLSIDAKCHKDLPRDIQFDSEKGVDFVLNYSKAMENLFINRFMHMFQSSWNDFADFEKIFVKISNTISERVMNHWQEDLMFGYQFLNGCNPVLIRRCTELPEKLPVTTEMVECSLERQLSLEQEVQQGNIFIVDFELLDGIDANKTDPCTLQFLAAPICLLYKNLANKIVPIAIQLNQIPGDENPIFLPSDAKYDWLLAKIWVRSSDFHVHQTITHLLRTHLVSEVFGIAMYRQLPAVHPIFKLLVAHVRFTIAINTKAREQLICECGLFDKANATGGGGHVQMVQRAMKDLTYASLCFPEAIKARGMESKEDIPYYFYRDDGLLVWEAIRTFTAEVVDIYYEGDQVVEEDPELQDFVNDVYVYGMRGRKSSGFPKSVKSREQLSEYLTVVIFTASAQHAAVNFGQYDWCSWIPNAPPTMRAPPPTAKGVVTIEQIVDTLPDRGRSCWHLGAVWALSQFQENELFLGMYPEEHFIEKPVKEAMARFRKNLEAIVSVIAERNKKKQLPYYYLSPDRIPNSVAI
Procedure: The test method described below measures the ability of compounds to inhibit 5-lipoxygenase activity in human leukocytes.
Whole human blood is collected by venipuncture into EDTA (1.4 mL of 0.25M per 60 mL of whole blood). The red blood cells are sedimented with a 6% dextran/0.9% sodium chloride solution at a ratio of 25 mL whole blood to 15 mL dextran solution. The blood/dextran combination is mixed by inversion and the red blood cells are allowed to settle out for 45 minutes at ambient temperature. The plasma/dextran supernatant is removed then centrifuged at ambient temperature at 3000 rpm for 10 minutes. The plasma/dextran supernatant is removed and the cells are resuspended in 10 mL of the plasma/dextran solution. […] The pellet is then resuspended into Tris buffer containing 1 mM calcium chloride to provide approximately 1.0 X 10^7 cells/mL.
Compounds are dissolved in dimethyl sulfoxide. […] Each concentration is tested in duplicate.
A 15 µL portion of Tris buffer containing 1 mM calcium chloride is added to each well of a 96 well microtiter plate. A 1 µL portion of drug solution or vehicle (dimethyl sulfoxide) is added to each well followed by the addition of an 75 µL portion of the cell suspension. The plates are gently mixed then allowed to stand at ambient temperature for 10 minutes. A 10 µL portion of 30 µM A23187 Calcium Ionophore (prepared by dissolving the ionophore in DMSO and then diluting 1:80 into the Tris buffer) is added to each well except the wells that contain the blanks (The blank wells measure the level of LTC4 production in the absence of A23187.). The plates are gently mixed then incubated at 37°C for 10 minutes.
Following incubation the plates are centrifuged at 2000 rpm for 1.5 minutes and the supernatant is removed as quickly as possible to stop the reaction. The supernatants are frozen at -20°C until they are assayed.
The supernatants are assayed for the presence of Leukotriene C4 by radioimmunoassay which is performed according to the manufacturer's (Advanced Magnetics; Cambridge, MA) instructions.

[2] = human leukocytes, A23187 Calcium Ionophore, LTC4 formed, read-out: IC50

IC50 (5-lipoxygenase; [2]) [nM]	SMILES	%I ([1]; 50 mg/Kg)	further results
10	CC(C)CCN(O)C(=O)Nc1ccccc1 [Compound 44, 1-hydroxy-1-(3-methylbutyl)-3-phenylurea]	18%	–
94	CC(C)CN(O)C(=O)Nc1ccccc1 [Compound 54, 1-Hydroxy-1-(2-methylpropyl)-3-phenylurea]	42%	–
700	CC(C)N(O)C(=O)Nc1ccccc1F [Compound 20, 3-(2-fluorophenyl)-1-hydroxy-1-(1-methylethyl)urea]	19%	–
210	CC(C)N(O)C(=O)Nc1ccc(F)cc1 [Compound 18, 3-(4-fluorophenyl)-1-hydroxy-1-(1-methylethyl)urea]	3%	–
680	CN(O)C(=O)Nc1cccc(F)c1 [Compound 8, 3-(3-fluorophenyl)-1-hydroxy-1-methylurea]	–	%I ([1]; 5 mg/Kg): 29%
150	COc1ccc(NC(=O)N(O)C(C)C)cc1 [Compound 23, 1-hydroxy-3-(4-methoxyphenyl)-1-(1-methylethyl)urea]	45%	–
20	CN(O)C(=O)Nc1ccccc1 [Compound 10, 1-hydroxy-1-methyl-3-phenylurea]	41%	%I ([1]; 25 mg/Kg): 23%
100	CC(C)N(O)C(=O)Nc1ccc(Br)cc1 [Compound 19, 3-(4-bromophenyl)-1-hydroxy-1-(1-methylethyl)urea]	3%	–
130	Cc1ccccc1NC(=O)N(O)C(C)C [Compound 25, 1-hydroxy-1-(1-methylethyl)-3-(2-methylphenyl)urea]	45% and 79%	%I ([1]; 10 mg/Kg): 13%; %I ([1]; 25 mg/Kg): 44%
43	CC(C)N(O)C(=O)Nc1ccccc1 [Compound 17, 1-hydroxy-1-(1-methylethyl)-3-phenylurea]	26%	–
83	CSc1ccc(NC(=O)N(C)O)cc1 [Compound 1, 1-Hydroxy-1-methyl-3-[4-(methylthio)phenyl]urea]	87%	%I ([1]; 5 mg/Kg): 18%
70	CN(O)C(=O)Nc1cccc(Br)c1 [Compound 6, 3-(3-bromophenyl)-1-hydroxy-1-methylurea]	47%	%I ([1]; 5 mg/Kg): 39%
–	CC(C)N(O)C(=O)Nc1ccccc1Cl [Compound 24, 3-(2-chlorophenyl)-1-hydroxy-1-(1-methylethyl)urea]	29%	IC50 (5-lipoxygenase): 200 nM
420	COc1cccc(NC(=O)N(C)O)c1 [Compound 5, 1-hydroxy-3-(3-methoxyphenyl)-1-methylurea]	82%	–
1100	CN(O)C(=O)Nc1cccc(S(C)(=O)=O)c1 [Compound 59, 1-Hydroxy-1-methyl-3-[3-(methylsulfonyl)phenyl]urea]	65% and 87%	%I ([1]; 5 mg/Kg): 9%; %I ([1]; 10 mg/Kg): 23%; %I ([1]; 20 mg/Kg): 20%; %I ([1]; 25 mg/Kg): 49%
8	CSc1cccc(NC(=O)N(O)C(C)C)c1 [Compound 16, 1-hydroxy-1-(1-methylethyl)-3-[3-(methylthio)phenyl]urea]	–	%I ([1]; 25 mg/Kg): 74%
280	Cc1cccc(NC(=O)N(C)O)c1 [Compound 7, 1-hydroxy-1-methyl-3-(3-methylphenyl)urea]	–	%I ([1]; 5 mg/Kg): 32%
230	Cc1cccc(NC(=O)N(O)C(C)C)c1 [Compound 21, 1-hydroxy-1-(1-methylethyl)-3-(3-methylphenyl)urea]	–	–
80	CN(O)C(=O)Nc1cccc([N+](=O)[O-])c1 [Compound 9, 1-hydroxy-1-methyl-3-(3-nitrophenyl)urea]	–	%I ([1]; 25 mg/Kg): 34%
